# Source: US20040220268A1, “Compound that directly stimulates phospholipase C activity” (priority 2003, published 2004)
# Experiments:
# phospholipase D = assay: In vitro activity of phospholipase D; format: biochemical; conditions: data not shown
# Gs-proteins = assay: Cyclic AMP generation (radio receptor assay); format: cell-based; conditions: human neutrophils; m-3M3FBS 25 μM, histamine 100 μM
# Experimental: (§1) Isolated neutrophils were preincubated with PTX (1 μg/ml) or vehicle for 90 min at 37° C. and stimulated with m-3M3FBS, FMLF, or ATP at concentrations of 25, 1, and 500 μM, respectively. Changes in the excitation ratios at 340 nm/380 nm were monitored. Data are presented as means ±S. E. M. of two independent experiments (A). cAMP levels were determined by a radio receptor assay. Prepared cells were treated with m-3M3FBS (25 μM) or histamine (100 μM) and then lysed with Tris-EDTA. After removing the supernatant, [ 3H] cAMP and protein were added, and the amount of [^3H] cAMP-protein complex was determined. The amount of unlabeled cAMP (in the sample) was then calculated by measuring the protein-bound radioactivity. Data are presented as means ±S. E. M. of two independent experiments (B). […] RGS2-GFP inducible HeLa cells were cultured for 48 h in the absence or in the presence of tetracycline and loaded with fura-2. Cells were treated with histamine (100 μM) or m-3M3FBS (25 μM), and changes in the 340 nm/380 nm ratios were monitored and converted to [Ca^2+]i values. The results shown are representative of three independent experiments (C).
# Gq-proteins = assay: [Ca2+]i in RGS2-GFP inducible HeLa cells; format: cell-based, human; conditions: histamine 100 μM, m-3M3FBS 25 μM
# Experimental: as §1
# pRevTRE vector containing the cDNA of rat RGS2-GFP was transfected into Hela Tet-off cells using Lipofectamine. Selection was performed in DMEM supplemented with 2 μg/ml of tetracycline and 500 μg/ml of hygromycin B. Two weeks later, several well-isolated colonies were picked out and analyzed by western blotting to determine the expression level of RGS2 in the absence of tetracycline. For these experiments, HeLa cells were cultured for 48 h in the absence or in the presence of tetracycline.
# Freshly prepared human neutrophils were incubated in serum free RPMI 1640 medium with 3 μM of fura-2/AM at 37° C. for 30 min with continuous stirring. After washing with serum free RPMI 1640 medium, the cells were suspended in serum free RPMI containing 250 μM of sulfinpyrazone to prevent dye leakage. About 2×10^6 cells were suspended in Ca^2+ free Locke's solution (158.4 mM NaCl, 5.6 mM KCl, 1.2 mM MgCl2, 5 mM HEPES pH 7.3, 10 mM glucose, and 0.2 mM EGTA) for each measurement. Changes in the fluorescence ratio were measured at an emission wavelength of 500 nm for dual excitation wavelengths at 340 nm and 380 nm. The calibration of the fluorescence ratio versus [Ca^2+]i was performed as described by Grynkiewicz (Grynkiewicz et al., 1985).
# PC12 cells = assay: [Ca2+]i measurement with fura-2; format: cell-based, rat; conditions: 25 μM
# Experimental: Neutrophils and HL60, and differentiated HL60, U937, NIH3T3, and PC12 cells were loaded with fura-2 and then stimulated with 25 μM of m-3M3FBS. Changes in the 340 nm/380 nm excitation ratio were monitored, and converted to [Ca^2+]i levels. Data are presented as means ±S. E. M. of three independent experiments.
# U937 (human histiocytic lymphoma cells), HL60 (human promyelocytic leukemia cells), NIH3T3 (NIH Swiss mouse embryo fibroblasts), and PC12 (rat adrenal pheochromocytoma cells) were obtained from the American Type Culture Collection (Rockville, Md.) and HeLa (human adenocarcinoma cells) Tet-off cells were purchased from Clontech (Palo Alto, Calif., U.S.A.) and maintained as recommended. The cells were maintained at about 1×10^6 cells/ml under standard incubator conditions (humidified atmosphere, 95% air, 5% CO2, 37° C.). […]
# Freshly prepared human neutrophils were incubated in serum free RPMI 1640 medium with 3 μM of fura-2/AM at 37° C. for 30 min with continuous stirring. […] Changes in the fluorescence ratio were measured at an emission wavelength of 500 nm for dual excitation wavelengths at 340 nm and 380 nm. The calibration of the fluorescence ratio versus [Ca^2+]i was performed as described by Grynkiewicz (Grynkiewicz et al., 1985).
# PI3-kinase = assay: Akt phosphorylation in U937 cells; format: cell-based, human; conditions: 50 μM, data not shown
# Description: The result led us to check whether the compound act specifically on PLC or act on other enzymes that recognize phosphoinositols as substrates such as phosphoinositide-3-kinase (PI3-kinase). For this, we tested the effect of m-3M3FBS on the Akt phosphorylation that is dependent on the PI3-kinase in U937 cells. […] The result support our notion that m-3M3FBS acts specifically on PLC.
# human neutrophils = assay: Superoxide anion generation (lucigenin chemiluminescence); format: cell-based; conditions: up to 50 μM
# Experimental: Superoxide anion generation was measured by monitoring chemiluminescence in the presence of the chemiluminogenic probe lucigenin. Prepared neutrophils were stimulated with m-3M3FBS or o-3M3FBS at 2.5, 5, 10, 15, 20, 25, and 50 μM and lucigenin (40 μM) was then added. Luminescence changes were measured using a Luminoskan. Data are presented as means ±S. E. M. of four independent experiments (A). Structures of m-3M3FBS (2,4,6-Trimethyl-N-(meta 3-trifluoromethyl-phenyl)-benzenesulfonamide) and o-3M3FBS (2,4,6-Trimethyl-N-(ortho 3-trifluoromethyl-phenyl)-benzenesulfonamide) (B).
# Superoxide anion production was measured by monitoring chemiluminescence in the presence of the chemiluminogenic probe lucigenin (Bureau et al., 2001). Prepared neutrophils were plated in 96 wells and stimulated with chemicals at concentrations of 2.5, 5, 10, 15, 20, 25 and 50 μM, and then the lucigenin (40 μM) was added. Luminescence, measured with a Luminoskan (Labsystems, Inc., Helsinki, Finland), was integrated over 10 s intervals for a total of 3 min at room temperature.
smiles,measurement,setting,value
"Cc1cc(C)c(S(=O)(=O)Nc2cccc(C(F)(F)F)c2)c(C)c1 [m-3M3FBS, 2,4,6-Trimethyl-N-(meta 3-trifluoromethyl-phenyl)-benzenesulfonamide]",activity of phospholipase D,phospholipase D,did not affect
same,intracellular cAMP level,Gs-proteins,didn't change the cAMP level
same,[Ca2+]i increase,Gq-proteins; HeLa cells in the presence of tetracycline (RGS2 not induced),caused [Ca^2+]i increases
same,effect of RGS2 induction on the induced calcium response,Gq-proteins; HeLa cells overexpressing RGS2,unaffected
same,calcium increase,PC12 cells,induced calcium increase
same,phosphorylation level of Akt,PI3-kinase,couldn't significantly increase
"Cc1cc(C)c(S(=O)(=O)Nc2ccccc2C(F)(F)F)c(C)c1 [o-3M3FBS, 2,4,6-Trimethyl-N-(ortho 3-trifluoromethyl-phenyl)-benzenesulfonamide, reference compound]",effect on superoxide generation,human neutrophils,did not affect
